Common to all, as to type: cell-based, human
One assay relates to Glio38. The assay can be described thus: MTS cell viability assay, GSC line Glio38. As to conditions: Homo sapiens, 72 h, read-out: Glio38 IC50. An excerpt: (§1) The generation and characterization of our GSC lines (Glio3, Glio9, Glio38) have been previously described. In brief, following patient consent, the resected tumors were mechanically and enzymatically dissociated, and red blood cells were removed using Red Cell Lysis buffer (SigmaAldrich, St. Louis, MO, USA). Cells were filtered and plated in a 3:1 ratio of Dulbecco’s Modified Eagle’s medium (DMEM): F12 (Gibco, Carlsbad, CA, USA) media supplemented with 1% penicillin and streptomcycin (penn/strep), 20 ng/mL each of human epidermal growth factor and human fibroblast growth factor, and 2% Gem21 NeuroPlex Serum-Free Supplement (Gemini Bioscience, Sacramento, CA, USA); a formulation consistent for the generation of GBM stem cell lines. Both Glio3 and Glio38 were derived from tumors prior to drug or radiation therapy and grow as neurospheres, whereas Glio9 was derived from a recurrent tumor, following chemo and radiotherapy, and grows adherent. The GBM cell line U87 MG (U87), purchased from ATCC (Manassas, VA, USA) and the pediatric GBM cell line SJ-GBM2 was obtained from Children’s Oncology Group. SJ-GBM2 cell line was derived from a child with glioblastoma post therapy and is used as part of a National Cancer Institute pediatric pre-clinical testing program. Both lines were maintained in RPMI media supplemented with 10% FBS and 1% penn/strep. Mesenchymal stem cells (MSCs) originally derived from human bone marrow aspirates were obtained from Thermo Fisher Scientific and maintained in MEM alpha supplemented with 20% FBS and 1% penn/strep. Prior to drug treatment, MSCs were moved to media with 10% FBS. Upon receipt U87, SJ-GBM2 and MSCs were immediately expanded with several aliquots frozen down for future use. These cell lines are not listed on the most recent NCBI database for misidentification and contamination of human cell lines. All cell lines were routinely tested for mycoplasma using LookOut mycoplasma PCR detection kit (Sigma-Aldrich, St. Louis, MO, USA) according to the manufacturer’s instructions and were maintained at 37 °C in a humidified 5% CO2 incubator.
(§2) The chalcones were dissolved in dimethyl sulfoxide (DMSO) at a concentration of 10 mM, vortexed and subsequently diluted to obtain 1 mM and 0.1 mM stock concentrations. C-dot-trans-chalcones were resuspended in supplement-free media (3:1 ratio DMEM/F12 for GSC experiments or RPMI for non-stem cell line experiments). Cell viability in response to drug treatment was determined using CellTiter 96 AQueous One Solution Cell Proliferation Assay, a colorimetric MTS assay kit (Promega, Madison, WI, USA). The GSCs were seeded into 96-well plates using modified neurosphere media containing 5% FBS at a density of 10,000 cells per well. MSCs and U87 cells were plated at 5000 cells/well while SJ-GBM2 cells were plated at 10,000 cells/well. The next day cells were treated with increasing concentrations of chalcones or C-dot-chalcone conjugate. Next, 72 h later, media was aspirated and 100 μL of a 1:5 solution of MTS to cell culture media was added to each well and incubated for 1–4 h. Optical density was measured at 490 nm using BioTek Synergy HT plate reader. Viability of drug treated cells is expressed as the percent viable cells relative to non-treated cells (100% viability). Experiments were done in triplicate.
For orientation: Formazan colour is commonly taken as a measure of viable cells.

A further assay relates to Glio9. Briefly: MTS cell viability assay, GSC line Glio9. As to conditions: Homo sapiens, 72 h, read-out: Glio9 IC50.
Source text: as §1, §2

The next assay has as its system Glio3. Briefly: MTS cell viability assay, GSC line Glio3. The settings on record: Homo sapiens, 72 h, read-out: Glio3 IC50.
Source text: as §1, §2

Assay [1] deals with mesenchymal stem cells (MSC). The assay can be described thus: MTS cell viability assay, mesenchymal stem cells. The settings on record: Homo sapiens, Mesenchymal stem cells, 72 h, estimated, >>10 indicates no cell death observed at any of the concentrations tested.
Source text: as §1, §2

Assay [2] relates to GSC lines Glio3, Glio9 and Glio38. The assay can be described thus: MTS cell viability assay, all three GSC lines together. As to conditions: for activity against GSCs: at the concentrations tested.
Source text: as §1, §2

Read-outs that look alike come from different tables or passages of the source. Some results are limits rather than exact numbers.

With `COc1cc(/C=C/C(=O)c2ccc(NC(C)=O)cc2)cc(OC)c1` [Chalcone 3g], the IC50 (usually the point on the concentration scale where inhibition reaches its midpoint) in the assay on Glio38 (MTS, ±SEM) is 5.4 ± 0.6 µM; with Glio9 (MTS, ±SEM), 4.8 ± 0.6 µM; in the assay on Glio3 (MTS, ±SEM), 6.2 ± 1.3 µM; in assay [1] it was 7.4 µM; in assay [2] (Homo sapiens, 72 h, in all three GSC lines, 72 h, read-out: IC50 in all GSC lines (bound stated in text)), less than 10 µM. Moreover, the “activity against GSCs” value in assay [2] is listed as “active”.

As for `CN(C)c1ccc(/C=C/C(=O)c2ccc(N)cc2)cc1` [Chalcone 3n], the IC50 with Glio38 (MTS, ±SEM) was more than 10 µM; in the assay with Glio9 (MTS, ±SEM), more than 10 µM; in the assay on Glio3 (MTS, ±SEM) it was more than 10 µM. Besides, the “activity against GSCs” value in assay [2] was “inactive at the concentrations tested”.

As to `COc1cc(/C=C/C(=O)c2ccc(N)cc2)cc(OC)c1O` [Chalcone 3k], the IC50 with Glio38 (MTS, ±SEM) was more than 10 µM; in the assay with Glio9 (MTS, ±SEM), more than 10 µM; with Glio3 (MTS, ±SEM), more than 10 µM. In addition, the entries for the “activity against GSCs” value in assay [2] and in assay [2] (listed as 4k) were “not active at concentrations tested” and “eliminates activity”, respectively.

Regarding `COc1cc(/C=C/C(=O)c2ccc(N)cc2)ccc1O` [Chalcone 3l], the IC50 with Glio38 (MTS, ±SEM) is more than 10 µM; in the assay on Glio9 (MTS, ±SEM), more than 10 µM; with Glio3 (MTS, ±SEM), more than 10 µM.

Consider `COc1cc(/C=C/C(=O)c2cccc(N)c2)cc(OC)c1OC` [Chalcone 5a, 3′-Amino-3,4,5-trimethoxychalcone], for which the IC50 with Glio38 (MTS, ±SEM) is 5 ± 0.8 µM; in the assay with Glio9 (MTS, ±SEM), 5.1 ± 0.6 µM; in the assay with Glio3 (MTS, ±SEM), 8 ± 1.5 µM; in assay [1], 5.5 µM.

Turning to `COCOc1ccc(C=CC(=O)c2ccc(N)cc2)cc1OC` [Chalcone 3h], the IC50 is more than 10 µM in the assay on Glio38 (MTS, ±SEM); more than 10 µM in the assay on Glio9 (MTS, ±SEM); more than 10 µM in the assay on Glio3 (MTS, ±SEM). Further, the “activity against GSCs” value in assay [2] is given as “not active at concentrations tested”.

With `COc1cccc(/C=C/C(=O)c2ccc(O)cc2)c1OC` [Chalcone 4a], the IC50 was 9.1 ± 0.7 µM in the assay with Glio38 (MTS, ±SEM); 14.2 ± 3 µM with Glio9 (MTS, ±SEM); 11.4 ± 0.9 µM with Glio3 (MTS, ±SEM); more than 10 µM in assay [1].

Regarding `Nc1ccc(C(=O)/C=C/c2ccco2)cc1` [Chalcone 3r], the IC50 was more than 10 µM in the assay with Glio38 (MTS, ±SEM); more than 10 µM with Glio9 (MTS, ±SEM); more than 10 µM in the assay on Glio3 (MTS, ±SEM).

Turning to `Nc1ccc(C(=O)C=Cc2ccc(N3CCOCC3)cc2)cc1` [Chalcone 3m], the IC50 in the assay on Glio38 (MTS, ±SEM) was more than 10 µM; with Glio9 (MTS, ±SEM), more than 10 µM; in the assay on Glio3 (MTS, ±SEM) it was more than 10 µM. In addition, the “activity against GSCs” value in assay [2] was “neither the morpholino or the methoxymethoxy derivatives were active against GSCs”.

Take `COc1cc(/C=C/C(=O)c2ccc(OCC(=O)O)cc2)cc(OC)c1OC` [Chalcone 4f]: the IC50 in the assay on Glio38 (MTS, ±SEM) was more than 10 µM; in the assay on Glio9 (MTS, ±SEM), more than 10 µM; with Glio3 (MTS, ±SEM), more than 10 µM. Moreover, in assay [2], the “activity against GSCs” value is on record as “active”.

As for `Nc1ccc(C(=O)/C=C/c2ccoc2)cc1` [Chalcone 3s], the IC50 was more than 10 µM in the assay on Glio38 (MTS, ±SEM); more than 10 µM in the assay on Glio9 (MTS, ±SEM); more than 10 µM in the assay with Glio3 (MTS, ±SEM).

Consider `Nc1ccc(C(=O)/C=C/c2ccc(O)cc2)cc1` [Chalcone 3i], for which the IC50 with Glio38, in the assay with Glio9 and with Glio3 was more than 10 µM each time. The “activity against GSCs” value in assay [2] is “not active at concentrations tested”.

Turning to `Nc1ccc(C(=O)/C=C/c2c[nH]c3ccccc23)cc1` [Chalcone 3t], the IC50 with Glio38 (MTS, ±SEM) is more than 10 µM; in the assay on Glio9 (MTS, ±SEM), more than 10 µM; with Glio3 (MTS, ±SEM), more than 10 µM.

As to `COc1ccc(/C=C/C(=O)c2ccc(N)cc2)cc1OC` [Chalcone 3b], the IC50 is more than 10 µM with Glio38 (MTS, ±SEM); more than 10 µM with Glio9 (MTS, ±SEM); more than 10 µM in the assay with Glio3 (MTS, ±SEM).

Consider `CCOc1cc(C=CC(=O)c2ccc(N)cc2)ccc1O` [Chalcone 3j], for which the IC50 in the assay with Glio38 (MTS, ±SEM) was more than 10 µM; with Glio9 (MTS, ±SEM), more than 10 µM; in the assay with Glio3 (MTS, ±SEM) it was more than 10 µM. Besides, the “activity against GSCs” value in assay [2] is “not active at concentrations tested”.

Regarding `COC(=O)COc1ccc(C(=O)/C=C/c2cc(OC)c(OC)c(OC)c2)cc1` [Chalcone 4e], the IC50 in the assay with Glio38 (MTS, ±SEM) was determined as 18.4 µM; in the assay on Glio9 (MTS, ±SEM) it was 7 ± 1.3 µM; in the assay with Glio3 (MTS, ±SEM), 10.4 ± 1.4 µM. Further, in assay [2], the “activity against GSCs” value was “active”.

The record behind these values is article PMC9316063, “Chalcones as Anti-Glioblastoma Stem Cell Agent Alone or as Nanoparticle Formulation Using Carbon Dots as Nanocarrier” (Pharmaceutics, 2022).
